{
  "source": "patent US20240316060A1",
  "about": "“LASER AND BCL-2 INHIBITORS COMBINATION TO TREAT SOLID TUMORS” (Board of Regents, The University of Texas System, priority 2023, published 2024)",
  "test_system": "3D spheroids",
  "assay": "Annexin-V assay in 3D spheroids (flow-cytometry)",
  "type": "cell-based",
  "settings": "without laser",
  "source_text": "Annexin-V Assay in 3D Spheroids\nTable 2 represents the flow-cytometry of solid tumors treated with various modalities including positive controls (DMSO and H2O2) compared with boron nitride/navitoclax formulations with and without laser excitation.",
  "data": [
    {"smiles": "C[S+](C)[O-]", "note": "[DMSO]", "values": [
      {"measurement": "Early apoptosis", "result": 9.51, "unit": "%"},
      {"measurement": "Late apoptosis", "result": 5.23, "unit": "%"},
      {"measurement": "Live", "result": 85, "unit": "%"}
    ]},
    {"smiles": "CC1(C)CCC(c2ccc(Cl)cc2)=C(CN2CCN(c3ccc(C(=O)NS(=O)(=O)c4ccc(N[C@H](CCN5CCOCC5)CSc5ccccc5)c(S(=O)(=O)C(F)(F)F)c4)cc3)CC2)C1", "note": "[Free NAVI, Navitoclax]", "values": [
      {"measurement": "Early apoptosis", "result": 32.04, "unit": "%"},
      {"measurement": "Late apoptosis", "result": 9.64, "unit": "%"},
      {"measurement": "Live", "result": 58, "unit": "%"}
    ]},
    {"smiles": "OO", "note": "[H2O2]", "values": [
      {"measurement": "Early apoptosis", "result": 58.37, "unit": "%"},
      {"measurement": "Late apoptosis", "result": 40.12, "unit": "%"},
      {"measurement": "Live", "result": 1, "unit": "%"}
    ]}
  ]
}
